Values quoted from earlier work as cited in publication PMC8391575, “Identification of Novel Cathepsin B Inhibitors with Implications in Alzheimer’s Disease: Computational Refining and Biochemical Evaluation” (Cells, 2021).
Where two headings read alike, the source gives them in different places. Where a SMILES comes first, the peptide text is derived from it.

Tested on: cathepsin B
Settings: cited from earlier work; for pIC50 Experimental: Table 4
[1] = class of the experimental IC50, read-out: Activity Scale Experimental
[2] = Table S1, read-out: IC50: half maximal inhibitory concentration
[3] = Figure 1, previously reported inhibitors of cathepsin B, read-out: IC50

Row | SMILES | pIC50 Experimental | IC50 [1] | IC50 [2] | IC50 (read-out: IC50) | IC50 [3]
1 | O=C(Oc1oc(-c2ccco2)nc1/C=N/c1ccccc1)c1ccco1 [Compound S22, [2-(furan-2-yl)-4-(phenyliminomethyl)-1,3-oxazol-5-yl] furan-2-carboxylate] | 4.41 | > 2500 nM |  |  | 
2 | CC(C)C[C@H](NC(=O)[C@H]1O[C@@H]1C(=O)O)C(=O)NCCCCN=C(N)N [Compound N13, (2S,3S)-3-[[(2S)-1-[4-(diaminomethylideneamino)butylamino]-4-methyl-1-oxopentan-2-yl]carbamoyl]oxirane-2-carboxylic acid] | 8.28 | < 300 nM |  |  | 
3 | CC1=C(C)C[S+]([O-])N(S(=O)(=O)c2ccc(Cl)cc2)C1 (centres unmarked) [Compound S25, 2-(4-chlorophenyl)sulfonyl-4,5-dimethyl-3,6-dihydrothiazine 1-oxide] | 5.38 | > 2500 nM |  |  | 
4 | Nc1cc(OC(=O)c2cccs2)nn1S(=O)(=O)c1ccccc1 [Compound S34, [5-amino-1-(benzenesulfonyl)pyrazol-3-yl] thiophene-2-carboxylate] | 6.61 | < 300 nM |  |  | 
5 | CC(=O)NC(CC(C)C)C(=O)NC(C(=O)NC(C=O)CCCCN)C(C)C (stereo not drawn) [Compound S3, 2-acetamido-N-[1-[(6-amino-1-oxohexan-2-yl)amino]-3-methyl-1-oxobutan-2-yl]-4-methylpentanamide] (Ac-Leu-Val-Lys-aldehyde; configuration not given here) | 8.4 | < 300 nM |  |  | 
6 | CCC(=O)Oc1oc(-c2ccccc2)nc1/C=N/c1ccccc1OC [Compound S21, [4-[(2-methoxyphenyl)iminomethyl]-2-phenyl-1,3-oxazol-5-yl] propanoate] | 4.39 | > 2500 nM |  |  | 
7 | NCCCCNC(=O)[C@H](Cc1ccc(O)cc1)NC(=O)[C@H]1O[C@@H]1C(=O)O [Compound N7, (2S,3S)-3-{[(2S)-1-[(4-Aminobutyl)amino]-3-(4-hydroxyphenyl)-1-oxo-2-propanyl]carbamoyl}-2-oxiranecarboxylic acid] | 6.55 | < 300 nM | 280 nM |  | 
8 | NC(N)=NCCCCNC(=O)C(Cc1ccccc1)NC(=O)C1OC1C(=O)O (centres unmarked) [Compound N15, 3-[[1-[4-(diaminomethylideneamino)butylamino]-1-oxo-3-phenylpropan-2-yl]carbamoyl]oxirane-2-carboxylic acid] | 6.57 | < 300 nM | 270 nM |  | 
9 | Nc1cc(OC(=O)c2ccco2)nn1S(=O)(=O)c1ccc(F)cc1 [Compound S10, [5-amino-1-(4-fluorophenyl)sulfonylpyrazol-3-yl] furan-2-carboxylate] | 5.9 | 300 to 2500 nM |  |  | 
10 | CC(=O)OC1(C(F)(F)F)Oc2ccccc2NC1=O (centres unmarked) [Compound S33, [3-oxo-2-(trifluoromethyl)-4H-1,4-benzoxazin-2-yl] acetate] | 6.07 | 300 to 2500 nM |  |  | 
11 | Cn1ncnc2c(=O)n(C)c(=O)nc1-2 [Compound N22, 1,6-dimethylpyrimido[5,4-e][1,2,4]triazine-5,7-dione] | 7.34 | < 300 nM |  |  | 
12 | CC1=C(O)C(=O)C=C2C1=CC=C1[C@@]2(C)CC[C@@]2(C)[C@@H]3C[C@](C)(C(=O)O)CC[C@]3(C)CC[C@]12C [Compound N8, (2R,4aS,6aR,6aS,14aS,14bR)-10-hydroxy-2,4a,6a,6a,9,14a-hexamethyl-11-oxo-1,3,4,5,6,13,14,14b-octahydropicene-2-carboxylic acid] | 3.91 | > 2500 nM | 1250 nM | 125000 nM | 
13 | COc1ccc(S(=O)(=O)n2nc(OC(=O)c3ccccc3)cc2N)cc1 [Compound S17, [5-amino-1-(4-methoxyphenyl)sulfonylpyrazol-3-yl] benzoate] | 5.02 | > 2500 nM |  |  | 
14 | CCOC(=O)C(C(=O)OCC)N(C#N)c1nc(SC)nc(N(C)C)n1 [Compound S19, diethyl 2-[cyano-[4-(dimethylamino)-6-methylsulfanyl-1,3,5-triazin-2-yl]amino]propanedioate] | 4.71 | > 2500 nM |  |  | 
16 | CC(NC(=O)C(Cc1ccccc1)NC(=O)OCc1ccccc1)C([O-])=C[N+]#N (centres unmarked) [Compound S4, 1-diazonio-3-[[3-phenyl-2-(phenylmethoxycarbonylamino)propanoyl]amino]but-1-en-2-olate] | 8.03 | < 300 nM |  |  | 
17 | COc1cc(OC)cc(-c2cc3cnc(N)nc3nc2NC(=O)NC(C)(C)C)c1 [Compound N18, 1-[2-amino-6-(3,5-dimethoxyphenyl)pyrido[2,3-d]pyrimidin-7-yl]-3-tert-butylurea] | 6.24 | 300 to 2500 nM | 580 nM |  | 

Row | SMILES | pIC50 Experimental | IC50 [1] | IC50 [2] | IC50 (read-out: IC50) | IC50 [3]
18 | O=C(CNC(=O)c1ccco1)OCN1C(=O)c2ccccc2C1=O [Compound S35, (1,3-dioxoisoindol-2-yl)methyl 2-(furan-2-carbonylamino)acetate] | 5.07 | > 2500 nM |  |  | 
19 | O=[N+]([O-])NC1=NCCN1Cc1ccc(Cl)nc1 [Compound N10, N-[1-[(6-chloropyridin-3-yl)methyl]-4,5-dihydroimidazol-2-yl]nitramide] | 8.03 | < 300 nM |  |  | 
20 | COc1ccc(S(=O)(=O)n2nc(OC(=O)c3ccc(C)cc3)cc2N)cc1 [Compound S8] | 4.91 | > 2500 nM |  |  | 
21 | NC(N)=NCCCCNC(=O)C(Cc1ccc(O)cc1)NC(=O)C1OC1C(=O)O (centres unmarked) [Compound N16, 3-[[1-[4-(diaminomethylideneamino)butylamino]-3-(4-hydroxyphenyl)-1-oxopropan-2-yl]carbamoyl]oxirane-2-carboxylic acid] | 6.49 | 300 to 2500 nM | 320 nM |  | 
22 | CCOC(=O)[C@@H]1O[C@H]1C(=O)N[C@@H](CC(C)C)C(=O)N1CCN(Cc2ccc(OC)c(OC)c2OC)CC1 [Compound S39, ethyl(2R,3R)-3-[[(2S)-4-methyl-1-oxo-1-[4-[(2,3,4-trimethoxyphenyl)methyl]piperazin-1-yl]pentan-2-yl]carbamoyl]oxirane-2-carboxylate; sulfuric acid] | 6.09 | 300 to 2500 nM | 800 nM |  | 
23 | O=c1cc(-c2ccc(O)c(-c3c(O)cc(O)c4c(=O)cc(-c5ccc(O)cc5)oc34)c2)oc2cc(O)cc(O)c12 [Compound N3, 8-[5-(5,7-dihydroxy-4-oxochromen-2-yl)-2-hydroxyphenyl]-5,7-dihydroxy-2-(4-hydroxyphenyl)chromen-4-one] | 5.76 | 300 to 2500 nM | 1750 nM |  | 1170 nM
24 | COc1ccc(-c2cc(=O)c3c(O)cc(O)c(-c4cc(-c5cc(=O)c6c(O)cc(OC)cc6o5)ccc4OC)c3o2)cc1 [Compound N4, 5,7-dihydroxy-8-[5-(5-hydroxy-7-methoxy-4-oxochromen-2-yl)-2-methoxyphenyl]-2-(4-methoxyphenyl)chromen-4-one] | 6.21 | 300 to 2500 nM | 620 nM |  | 
25 | COc1ccc(S(=O)(=O)n2nc(OC(=O)c3cccs3)cc2N)cc1 [Compound S31, [5-amino-1-(4-methoxyphenyl)sulfonylpyrazol-3-yl] thiophene-2-carboxylate] | 6.16 | 300 to 2500 nM |  |  | 
26 | CCC(C)[C@@H](NC(=O)OC(C)(C)C)c1nnc(S(=O)(=O)Cc2cccc(C)c2)o1 (stereo partly drawn) [Compound S23, tert-butyl N-[(1R)-2-methyl-1-[5-[(3-methylphenyl)methylsulfonyl]-1,3,4-oxadiazol-2-yl]butyl]carbamate] | 5.68 | 300 to 2500 nM |  |  | 
28 | COc1ccccc1/N=C/c1nc(-c2ccccc2)oc1OC(C)=O [Compound S20, [4-[(2-methoxyphenyl)iminomethyl]-2-phenyl-1,3-oxazol-5-yl] acetate] | 5.05 | > 2500 nM |  |  | 
29 | NCCCCNC(=O)[C@H](Cc1ccccc1)NC(=O)[C@H]1O[C@@H]1C(=O)O [Compound N6, (2S,3S)-3-({(2S)-1-[(4-Aminobutyl)amino]-1-oxo-3-phenyl-2-propanyl}carbamoyl)-2-oxiranecarboxylic acid] | 6.58 | < 300 nM | 260 nM |  | 
30 | CC(C)CC(NC(=O)C1OC1C(=O)O)C(=O)NCCCCCO (centres unmarked) [Compound N1, 3-[[1-(5-hydroxypentylamino)-4-methyl-1-oxopentan-2-yl]carbamoyl]oxirane-2-carboxylic acid] | 7.14 | < 300 nM |  |  | 
31 | N#Cc1c(N2CCCC2)nc(N)c2c(N)nc(N3CCCC3)cc12 [Compound S29, 1,8-diamino-3,6-dipyrrolidin-1-yl-2,7-naphthyridine-4-carbonitrile] | 5.49 | > 2500 nM |  |  | 
32 | CC(=O)N[C@@H](CC(C)C)C(=O)N[C@@H](CC(C)C)C(=O)N[C@H](C=O)CCCN=C(N)N [Compound N19, 2-acetamido-N-[1-[[5-(diaminomethylideneamino)-1-oxopentan-2-yl]amino]-4-methyl-1-oxopentan-2-yl]-4-methylpentanamide; 2,2,2-trifluoroacetic acid] | 6.36 | 300 to 2500 nM | 440 nM |  | 
33 | COc1ccc(C(=O)C(OC(=O)CNC(=O)c2ccco2)c2ccccc2)cc1 (centres unmarked) [Compound S36, [2-(4-methoxyphenyl)-2-oxo-1-phenylethyl] 2-(furan-2-carbonylamino)acetate] | 4.74 | > 2500 nM |  |  | 
